Data set [1] has as its system α2δ subunit of calcium channels. Conditions: Bryans et al. (1999) Med. Res. Rev. 19:149-177; cited from earlier work.
Data set [2] concerns female rats, dilute acetic acid irritated bladder. The experiment in a line: Dilute acetic acid model, acute anesthetized rats: bladder capacity by cystometry. The data set is classed as in vivo, rat. Conditions: Example 1; for effectiveness of drug alone on bladder capacity: i.v.; for effective dose range of the drug in combination versus the drug alone (isobologram): individual animals, return to 31% of saline control, FIG. 4. As for the experimental part:
(§1) Urethane anesthetized (1.2 g/kg) normal female rats were utilized in this study.
(§2) Animals were dosed by volume of injection=body weight in kg.
Animal Preparation: Female rats (250-300 g body weight) were anesthetized with urethane (1.2 g/kg) and a saline-filled catheter (PE-50) was inserted into the jugular vein for intravenous drug administration. […] The abdominal cavity was moistened with saline and closed by covering with a thin plastic sheet in order to maintain access to the bladder for emptying purposes. Fine silver or stainless steel wire electrodes were inserted into the external urethral sphincter (EUS) percutaneously for electromyography (EMG).
Following 30 minutes of AA infusion, 3 vehicle injections were made at 20 minute intervals to determine vehicle effects, if any.
P<0.050 was considered significant.
as §1, §2

Data set [3] has as its system female cats, dilute acetic acid irritated bladder. The experiment in a line: Dilute acetic acid model in cats: bladder capacity and voiding efficiency. Conditions: cat; 30 mg/kg dose alone. The data set is classed as in vivo.
Experimental: Alpha-chloralose anesthetized (50-100 mg/kg) normal female cats (2.5-3.5 kg; Harlan) were utilized in this study.
Female cats (2.5-3.5 kg; Harlan) had their food removed the night before the experiment. The following morning, the cat was anesthetized with isoflurane and prepped for surgery using aseptic technique. Polyethylene catheters were surgically placed to permit the measurement of bladder pressure, urethral pressure, arterial pressure, respiratory rate as well as for the delivery of drugs. Fine wire electrodes were implanted alongside the external urethral anal sphincter. Following surgery, the cats were slowly switched from the gas anesthetic isoflurane (2-3.5%) to alpha-chloralose (50-100 mg/kg). During control cystometry, saline was slowly infused into the bladder (0.5-1.0 ml/min) for 1 hour. The control cystometry was followed by 0.5% acetic acid in saline for the duration of the experiment. After assessing the cystometric variables under these baseline conditions, the effects of test drug(s) on micturition were determined via a 3-5 point dose response protocols.
For the purposes of assessing synergy using all of the data simultaneously, bladder capacity data for each animal were normalized to % Recovery from Irritation, and this index was used as the measure of efficacy. […]
The conditions of data set [4]: preclinical and clinical studies; broad range of oral doses; cited from earlier work.
The subject of a further data set is SCI rats. Conditions: Cheng et al., 1995, Brain Res. 678:40-48; cited from earlier work.

As for `CC(C)C[C@H](CN)CC(=O)O` [Pregabalin, (S)-(3-aminomethyl)-5-methylhexanoic acid], the “binding affinity for the α2δ subunit of calcium channels relative to gabapentin” value in data set [1] is “even higher binding affinity”.

As for `NCC1(CC(=O)O)CCCCC1` [gabapentin, 1-(aminomethyl)cyclohexaneacetic acid], in data set [2], the “effectiveness of drug alone on bladder capacity” value is recorded as “modest effectiveness” and the “effective dose range of the drug in combination versus the drug alone (isobologram)” value is on record as “significantly lower”. Moreover, the “effect on bladder capacity” value in data set [3] is recorded as “no significant effect”.

Turning to `CC(OC(=O)NCC1(CC(=O)O)CCCCC1)OC(=O)C(C)C` (stereo not drawn) [XP13512], in data set [4], the “blood levels of gabapentin after oral prodrug” value was “dose proportional blood levels of gabapentin”.

Turning to `COc1cc(CNC(=O)CCCC/C=C/C(C)C)ccc1O` [capsaicin], in the data set on SCI rats, the “bladder capacity to voiding” value is recorded as “not effect bladder capacity to voiding” and the bladder instability result was “reduce bladder instability”.

Turning to `CCN(CC)CC#CCOC(=O)C(O)(c1ccccc1)C1CCCCC1` (stereo not drawn) [oxybutynin, 4-diethylaminio-2-butynyl phenylcyclohexyglycolate], in data set [2], the “effectiveness of drug alone on bladder capacity” value is given as “modest effectiveness” and the “effective dose range of the drug in combination versus the drug alone (isobologram)” value is given as “significantly lower”.

Source of the values: US20110294881A1, “METHODS FOR TREATING LOWER URINARY TRACT DISORDERS USING alpha2delta SUBUNIT CALCIUM CHANNEL MODULATORS WITH SMOOTH MUSCLE MODULATORS” (EDUSA PHARMACEUTICALS, INC., priority 2003, published 2011).
